Holding throughout (assay): NCI anticancer screen, dose series, 48 h
The subject of test [1] is HCC-2998 colon.
Test [2] relates to MDA-MB-435.
Test [3] has as its system SR leukemia.
Test [4] deals with MDA-N.
Test [5] relates to PC-3 prostate.
Test [6] deals with BT-549 breast.
In test [7] the test system is MDA-MB-231 breast.
The test system of test [8] is 786-0 renal.
Test [9] relates to XF 498 CNS.
Test [10] deals with SNB-78 CNS.
The test system of test [11] is KM20L2 colon.
The test system of test [12] is DLD-1 colon.
For test [13], the system named is HOP-18 NSCLC.
Test [14] has as its system M19-MEL melanoma.
Test [15] has as its system LXFL 529 NSCLC.

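Exposure lasted 48 hours, with cells grown in 96-well plates and compounds tested at five concentrations. Abbreviation: GI50, concentration required for 50% inhibition of growth. Definition used: TGI = concentration required for complete inhibition of growth.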

On to `CC1OC(OC2C[C@](O)(C(=O)CBr)Cc3c(O)c4c(c(O)c32)C(=O)c2ccccc2C4=O)C(F)C(O)C1O` (stereo partly specified), for which the TGI in test [1] is greater than 100 µM; in [2], 31.2 µM; in test [3] it was 3.79 µM; in test [4] it was 44.7 µM; in [5], greater than 68.2 µM; in [6], greater than 100 µM. Also, the TGI was 25.2 µM in [7] and greater than 59.5 µM in test [8].
On to `CCOC(=O)/C=C/c1c[nH]c(=O)[nH]c1=O`, for which the TGI in [1], in test [9], in test [10], in [11], in test [12] and in test [13] was greater than 75 µM each time. In [14], this compound had a TGI greater than 75 µM.
In the case of `CCCCCCCCCC[N+](C)(C)C`, the GI50 in [1] is 1.58 µM; in test [2], 1.75 µM; in test [3] it was 1.12 µM; in test [5], 0.978 µM; in [7], 1.59 µM. In addition, the TGI was 3.53 µM in test [1]; 4.29 µM in test [2]; 3.43 µM in [3]; 5.16 µM in [5]; 4.38 µM in [7].
As for `CCCCCCC(=O)c1ccc2ccccc2c1O`, the TGI in [1], in test [2], in test [3], in test [5], in test [6] and in [7] was greater than 100 µM each time. Further, the TGI in [8] is greater than 100 µM.
Consider `N[C@@H](Cc1ccc2oc3cc(=O)c4ccccc4c-3nc2c1)C(=O)O`, for which the TGI in test [2] was 31.7 µM; in test [3], 60.4 µM; in test [4] it was 38.2 µM; in test [7], greater than 100 µM; in test [8] it was greater than 100 µM.
In the case of `CSS(C)(=O)=O`, the TGI in [1] is 71.2 µM; in test [2] it was 44.3 µM; in test [3], 38.6 µM; in test [5], 48.7 µM; in test [7], greater than 100 µM; in [8], greater than 100 µM.
With `COc1ccc2c(c1)C=C(C(C)(C)C)NS2(=O)=O`, the TGI in test [1], in [15], in test [3], in test [10], in [11] and in test [12] was greater than 100 µM throughout. For the same compound, the TGI in [13], in test [8] and in [14] was greater than 100 µM in each case.
`CC(c1ccccc1)C(O)S(=O)(=O)O` (stereo unspecified): the TGI in [9], in test [15], in test [10], in [11], in test [13] and in [8] was greater than 100 µM throughout. The TGI in test [14] is greater than 100 µM.
Consider `C=CCOC1OC(CS(=O)(=O)O)C(OC(C)=O)C(OC(C)=O)C1OC(C)=O` (stereo unspecified), for which the TGI in test [1], in test [2], in test [3], in test [4], in [5] and in [6] was greater than 100 µM throughout.
`COc1cc2c3cc1Oc1c(OC)c(OC)cc4c1C(Cc1ccc(O)c(c1)-c1cc(ccc1OC)CC3N(C)CC2)N(C)CC4` (stereo unspecified): the TGI in [1] is 37.9 µM; in test [2], 61.5 µM; in test [3], 28.4 µM; in test [4], 30.6 µM; in [5], greater than 100 µM; in [6], 51.1 µM. For the same compound, the TGI in test [7] is 35.4 µM; in test [8], greater than 100 µM.
Take `COc1ccc(-c2c3c(nc4[nH]c(=S)[nH]c(=S)c24)CCCC3)cc1OC`: the TGI in test [2] is greater than 100 µM; in test [3] it was greater than 100 µM; in test [4] it was greater than 100 µM; in test [5], 79 µM; in [6], greater than 100 µM; in test [7], greater than 100 µM.
Take `c1ccc(N2N=C3N(c4ccccc4)C2N3c2ccccc2)cc1`: the TGI in test [1] was 77.5 µM; in test [2], 31.6 µM; in test [4], 41.8 µM; in test [5], greater than 100 µM; in test [6] it was greater than 100 µM; in [7], greater than 100 µM.
`COc1ccc(OCC(C)(C)O)cc1`: the TGI in test [1], in test [9], in test [10], in test [11], in [12] and in test [13] was greater than 100 µM each time.
On to `CC(C)(C)C(=O)CC(=O)C(F)(F)C(F)(F)C(F)(F)F.[Ag]`, for which the TGI in test [2] is 33.5 µM; in test [3], 22.4 µM; in test [4], 29 µM; in [5], 26.8 µM; in test [7], 30.1 µM; in test [8], 33 µM.
Regarding `COc1ccc2c(c1)c(=O)c1c(NCCCN(C)C)ccc3ncn2c31`, the TGI was 9.86 µM in test [1]; 18.9 µM in test [9]; 19.4 µM in test [2]; 19.8 µM in [15]; greater than 44.9 µM in test [3]; 23.5 µM in test [10]. For the same compound, the TGI in [11] stood at 17.1 µM; in test [4], 18.8 µM; in test [5], 15.6 µM; in [6] it was 32 µM; in test [12], 17.8 µM; in test [13], 28.6 µM. The TGI was 14.9 µM in test [8] and 24.8 µM in [14].

For the origin of these results see PubChem BioAssay (NCI).
